Source: patent US10716869B2, “Radiolabeled macrocyclic EGFR inhibitor” (Oncodesign SA, priority 2016, dated 2020)

Assays:
[1] = biodistribution by ex vivo γ-counting in Sprague Dawley rats
Experimental: To evaluate the biodistribution of the pure S (II) and R (III) enantiomers compared to compound (I), dynamic PET scan imaging and ex vivo gamma counting were performed on Sprague Dawley rats. Animals were injected with the radiotracer solution diluted in NaCl 0.9% to prepare a solution of activity 4-6 MBq (gamma-counting experiments) or 11-13 MBq (PET imaging experiments) in a volume of 300-400 or 600-800 μL, respectively. Radioactivity content in all biological samples was determined with scintillation γ-counter (Cobra 4180, Perkin-Elmer Inc.).
At the light of the biodistribution data of compound (I), the biodistribution of the R (III)- and S (II)-enantiomers was assessed by γ-counting in the organs in which the accumulation of compound (I) was prominent (that is: blood, heart, kidneys, liver, stomach, small intestine and colon). Two timepoints were selected: 5 and 30 minutes post-injection. […] The higher uptakes of R enantiomer (III) and S enantiomer (II) in these organs were expected to be observed at early timepoints after injection, giving the highest signals in the γ-counter and therefore making the comparison of biodistribution data more relevant. Besides, as PET images were acquired with compound (I), PET imaging was included in the evaluation of the biodistribution of R enantiomer and S enantiomer. This gave the opportunity to had one additional timepoint at 4 hours post-injection for collection of major organs and determination of radioactivity content by ex vivo γ-counting.

[2] = test system: human lung tumors (wild type EGFR, L858R mutated or exon 19 deleted EGFR); test: autoradiography on human frozen tumor sections; conditions: ATP at 10 mM
From the text: Three types of human lung tumors were included: tumors harboring wild type EGFR and tumors carrying L858R mutated or exon 19 deleted EGFR genes.

[3] = plasma stability by HPLC; assay type: in vitro ADME, rat; conditions: checked up to 4 h
Experimental: (§1) After radiosynthesis, the stability of the radiotracer was evaluated by HPLC both in its vehicle and in rat plasma. Compound (I) was formulated in physiologic serum/ethanol with the respective proportion 87.5/12.5 (v/v). A mixture of compounds (I) (i.e. radiolabelled) and (Ia) (i.e. cold analogue) was stable for up to 20 hours at room temperature in its vehicle, only one peak being detected at the expected retention time. In rat plasma two peaks were detected: one at 3.15 minutes and one at 8.02 minutes (corresponding to a mixture of compounds (I) and (Ia)) after an incubation at +37° C. for 4 hours.

[4] = radiochemical stability in vehicle by HPLC; assay type: physicochemical; conditions: conditions of formulation, storage at room temperature
Experimental: By this method, the final radiolabeled compound can be obtained with a radiochemical purity greater than 98% in 100-110 min with a yield that can reach 25% (decay corrected). It has been noticed that an uncompleted evaporation of the solvents used for the purification of [^18F]Fluoroethyltosylate hampers the second step and conducts to lower yields. Specific activity of productions was in the range of […]. The radiolabeled compound is stable in the conditions of formulation as radiochemical purity still greater than 95% 20 h after production with a storage at room temperature.
as §1

uptake in liver ([1]; 5 minutes post injection) [% ID/g] | uptake in small intestine ([1]; 5 minutes post injection) [% ID/g] | uptake in blood ([1]; 5 minutes post-injection) [% ID/g] | uptake in heart ([1]; 5 minutes post-injection) [% ID/g] | uptake in kidneys ([1]; 5 minutes post-injection) [% ID/g] | uptake in stomach ([1]; 5 minutes post-injection) [% ID/g] | uptake in liver ([1]; 30 minutes post injection) [% ID/g] | uptake in heart ([1]; 30 minutes post-injection) [% ID/g] | uptake in kidneys ([1]; 30 minutes timepoint) [% ID/g] | uptake in stomach ([1]; 30 minutes timepoint) [% ID/g] | uptake in stomach ([1]; four hours post-injection) [% ID/g] | uptake in small intestine ([1]; thirty minutes post-injection) [% ID/g] | Plasmatic stability [3] | radiochemical purity 20 h after production [4] | SMILES | competition with the binding of Compound (I) on frozen tumor sections [2]
0.02±0.09 | 0.35±0.19 | 0.20±0.002 | 0.99±0.02 | 4.15±0.79 | 1.86±0.73 | 0.71±0.07 | 0.10±0.02 | 0.25±0.08 | 0.26±0.07 | 2.58±2.52 | 0.02±0.004 |  |  | CC(C)[C@H]1NC(=O)Cc2ccc(Cl)cc2Nc2ncnc3cc(OCC[18F])c(cc23)OCCCNC1=O [(III)] | 
 |  |  |  |  |  |  |  |  |  |  |  |  |  | Nc1ncnc2c1ncn2[C@@H]1O[C@H](COP(=O)(O)OP(=O)(O)OP(=O)(O)O)[C@@H](O)[C@H]1O [ATP, reference compound] | totally abolished the binding of Compound (I)
0.97±0.92 | 0.08±0.09 | 0.11±0.01 | 1.35±0.35 | 6.89±0.52 | 0.72±0.38 | 0.15±0.03 | 0.19±0.08 | 1.04±0.17 | 0.20±0.05 | 2.39±2.31 | 0.08±0.07 | without significant degradation | greater than 95% | CC(C)[C@@H]1NC(=O)Cc2ccc(Cl)cc2Nc2ncnc3cc(OCC[18F])c(cc23)OCCCNC1=O [Compound (II)] | 
